We go through one molecule from US12622910B2, “Inhibitors of Bruton's tyrosine kinase and methods of their use” (Janssen Pharmaceutica NV, priority 2021, dated 2026).

The nature of series [1]: Rat collagen-induced arthritis. The note with it: female, Wistar, rat, plasma, oral, 2 mg/kg/day. Type of series: in vivo, female Wistar rat. From the text:
(§1) In vivo activity in collagen-induced arthritis—A rat CIA model in female Wistar rats was used to define the impact of the compound of Formula (III) on chronic inflammation and derive PK-PD correlations (FIG. 16). YiSaipu™ (recombinant human tumor necrosis factor-α receptor (type II): IgGI Fc (rhTNFR:Fc) fusion protein; biogeneric version of Etanercept™) was used as a comparator. […] The doses required to achieve meaningful efficacy correlated with a BTK target occupancy threshold of >75% over 24 hours based on the preceding target engagement studies.
(§2) Rat collagen-induced arthritis—An emulsion was prepared on ice from equal volumes of type II collagen (CII; Chondrex) (2 mg/mL in 100 mM acetic acid (Sinopharm Chemical Reagent Co. Ltd)) and Incomplete Freund's Adjuvant (IFA) (Sigma-Aldrich) by high speed homogenization (28,000 rpm) for 3 min (FLUKO Equipment Shanghai Co. Ltd). Eighty-two rats were used in the study. Before immunization, 6 rats were randomly selected as a naïve group. The other 76 rats were anesthetized with inhalational isoflurane, and injected intradermally at the base of the tail with 0.2 mL of the emulsion (1 mg/mL CII/IFA), 2 to 3 cm from the body on day 0 and day 7. On day 10, the 56 rats with the most developed arthritis based on paw volume measurements out of the 76 rats that were immunized were divided into 7 groups (n=8) with a stratified random block design according to average hind paw volume of each rat. Each group with similar starting paw inflammation was administered with vehicle or different doses of the compound of Formula (III) (0.3, 1, 2, 3, 10 mg/kg, PO, QD, days 10-17) or YiSaiPu (biosimilar etarnacept) (15 mg/kg, IP, QOD, days 10-16).
(§3) Hind paws volume and body weight were monitored daily for 7 consecutive days (days 10-16) after initiation of test article dosing. Left and right paw volumes in each rat were measured by a Plethysmometer (Catalog No. 7140, Ugo Basile. Italy). Blood (about 300 μL) in the groups treated with the compound of Formula (III) was collected into heparinized tubes via retro-orbital bleeding under isoflurane anesthesia on day 17-18. For groups treated with the compound of Formula (III), the composite collection time points were 0, 0.5, 1, 2, 4, 8, 12 and 24 hrs after last administration of the compound of Formula (III). After collection, blood samples were centrifuged (5,000 rpm for 10 min), plasma collected, and the concentrations of the compound of Formula (III) were determined using liquid chromatography mass spectrophotometry.

Series [2] relates to hind paw inflammation. In words: Rat collagen-induced arthritis. Type of series: in vivo, female Wistar rat.
Source text: as §1, §2, §3

Series [3] in a line: Preclinical PK, oral and IV. It is filed as in vivo, monkey.
The nature of series [4]: Blood-to-plasma concentration ratio. It is filed as in vitro ADME. To be noted: dog, fresh blood.
Series [5] has as its system PXR. The series can be described thus: Puracyp DPX2 luciferase-reporter cell line (CYP3A4 induction). Type of series: in vitro ADME. Here is the method:
(§4) To assess the potential of the compound of Formula (III) to be a time-dependent inhibitor of CYP3A, human liver microsomes were preincubated for 30 minutes at 37° C. with the compound of Formula (III) at concentrations up to 10 μM, and CYP3A activity was measured using testosterone as a probe substrate. […] The potential of the compound of Formula (III) to induce CYPs at the transcriptional level was assessed using Puracyp™ DPX2 (CYP3A4, PXR) and DRE (CYP1A2, AhR) luciferase-reporter cell lines; rifampicin and omeprazole were used as positive controls for CYP3A and CYP1A induction, respectively. The activation by the compound of Formula (III) was <20% of positive control values for PXR (6.6% and 14.1% at 1 and 10 μM change, respectively) or AhR (0.1% and 0.3% change, respectively). […] Potential involvement of various CYP isoforms in the metabolism of the compound of Formula (III) was investigated by measuring the parent compound remaining after 1-hour incubation with the compound of Formula (III) (1 μM) with recombinant CYPs (rCYPs) at 100 pmol P450/mL in the presence of 1 mM NADPH at 37° C. The only isozyme that produced notable the compound of Formula (III) turnover with <1% parent remaining after 1-hour incubation was CYP3A4 (FIG. 24). […]

The nature of series [6]: Blood-to-plasma concentration ratio. Type of series: in vitro ADME. The note with it: monkey, fresh blood.
Series [7] is described as follows: Plasma protein binding, equilibrium dialysis. It is filed as in vitro ADME, human. Here is the method: Additional Data on Preclinical PK Profile—Protein binding of the compound of Formula (III) was studied using an equilibrium dialysis method in plasma from human, cynomolgus monkey, beagle dog, Sprague Dawley rat, CD-1 mouse, and guinea pig at 0.25, 2.5, and 25 μM. […] In human and monkey, the plasma protein binding was concentration dependent. […] Free fraction of the compound of Formula (III) in liver microsomes from various species ranged from 75.1% to 87.9% at 0.25 mg/mL and from 58.9% to 86.5% at 1.0 mg/mL (Table 17). […] In hepatocytes, the compound of Formula (III) turnover followed a similar trend, with T1/2 ranging from 75.3 minutes in monkey to 278.1 minutes in human.

The target of series [8] is T1, CYP3A4 (Homo sapiens, UniProt P08684).
T1 construct: with specific CYP probe substrates in human liver microsomes; from tissue; host or cells: human liver microsomes
T1 sequence (P08684 whole entry): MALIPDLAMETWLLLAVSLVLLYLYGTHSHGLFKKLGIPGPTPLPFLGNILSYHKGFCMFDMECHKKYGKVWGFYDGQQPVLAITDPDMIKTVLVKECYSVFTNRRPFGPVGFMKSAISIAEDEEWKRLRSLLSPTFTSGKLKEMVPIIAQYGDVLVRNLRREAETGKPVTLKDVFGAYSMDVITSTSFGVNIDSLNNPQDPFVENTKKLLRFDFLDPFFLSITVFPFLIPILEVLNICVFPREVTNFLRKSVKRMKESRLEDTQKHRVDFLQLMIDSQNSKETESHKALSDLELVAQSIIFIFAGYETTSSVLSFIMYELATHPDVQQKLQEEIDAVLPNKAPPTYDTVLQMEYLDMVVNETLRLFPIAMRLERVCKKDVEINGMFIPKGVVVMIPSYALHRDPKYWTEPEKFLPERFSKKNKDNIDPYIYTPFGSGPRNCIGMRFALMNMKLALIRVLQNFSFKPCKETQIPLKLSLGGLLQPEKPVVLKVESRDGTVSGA
The series can be described thus: Metabolism by recombinant CYPs. Type of series: in vitro ADME. The note with it: 1 μM, 100 pmol P450/mL, 1 mM NADPH. As for the experimental part:
as §4

For the molecule `C=CC(=O)N[C@H]1CCC[C@H]1NC(=O)c1sc2nccc3c2c1NC(=O)N3c1cnc(CC(C)C)cc1C` (atropisomer, axis not shown) [compound of Formula (III), N-((1R,2S)-2-Acrylamidocyclopentyl)-5-(S)-(6-isobutyl-4-methylpyridin-3-yl)-4-oxo-4,5-dihydro-3H-1-thia-3,5,8-triazaacenaphthylene-2-carboxamide], the AUC(0-t) in series [1] (read-out: AUClast at efficacious dose) came out at 324 ng·h/mL. Besides, the Cmax – broadly, the peak of the concentration-time curve – in series [1] (read-out: Cmax at efficacious dose) came out at 46.6 ng/mL; in series [3] (monkey, in vivo, oral), 1010 ± 94 ng/mL. Further, the “effect on hind paw inflammation” value in series [2] (0.3, 1, 2, 3, 10 mg/kg/day PO QD) is listed as “attenuated hind paw inflammation in a dose-dependent manner”. Also, the “dose with effect on inflammation equivalent to anti-TNFα comparator” value in series [2] (PO QD) is reported as ≥ 2 mg/kg/day. The molecule further yielded a clearance in series [3] (monkey, in vivo, iv) of 3.1 ± 0.3 mL/min/kg. Further, the half-life in series [3] (monkey, in vivo, iv, read-out: IV T1/2 (converted)) was 4 h. Moreover, the Vd in series [3] (monkey, in vivo, iv, read-out: Vss) was found to be 0.7 L/kg. The Tmax – broadly, the time at which the peak concentration occurs – in series [3] (monkey, in vivo, oral) was 1.7 ± 0.6 h. For the same molecule, in series [3] (monkey, in vivo, oral, read-out: Oral AUCinf), the AUC(0-inf) turned out to be 10000 ± 2270 ng·h/mL. This molecule yielded a F in series [3] (oral, monkeys) of 75 ± 17%. For the same molecule, the blood plasma ratio at 1 μM stood at 0.75 in series [4] and 0.69 in series [6]. Also, the “PXR activation, % of positive control (rifampicin)” value was determined as 6.6% in series [5] (1 μM) and 14.1% in series [5] (10 μM). Further, the “% Free in plasma” value in series [7] (2.5 μM) is listed as 3.1%. Besides, the fraction unbound at 0.25 μM in series [7] (human, plasma, 0.25 μM, read-out: % Free in plasma) stood at 0.0169. The fraction unbound at 25 μM in series [7] (human, plasma, 25 μM, read-out: % Free in plasma) is 0.0463. In addition, the “parent remaining after 1-hour incubation” value in series [8] was < 1%.
